This is an account of results in patent publication US20160145257A1, “SUBSTITUTED XANTHINES AND METHODS OF USE THEREOF” (Hydra Biosciences, Inc., priority 2013, published 2016).

In this assay the target is T1, hTRPC5 (Homo sapiens, UniProt Q9UL62).
T1 construct: expressed in transfected cells; host or cells: HEK293 TREx cells with inducible TRPC5 expression
T1 sequence (Q9UL62 1-973): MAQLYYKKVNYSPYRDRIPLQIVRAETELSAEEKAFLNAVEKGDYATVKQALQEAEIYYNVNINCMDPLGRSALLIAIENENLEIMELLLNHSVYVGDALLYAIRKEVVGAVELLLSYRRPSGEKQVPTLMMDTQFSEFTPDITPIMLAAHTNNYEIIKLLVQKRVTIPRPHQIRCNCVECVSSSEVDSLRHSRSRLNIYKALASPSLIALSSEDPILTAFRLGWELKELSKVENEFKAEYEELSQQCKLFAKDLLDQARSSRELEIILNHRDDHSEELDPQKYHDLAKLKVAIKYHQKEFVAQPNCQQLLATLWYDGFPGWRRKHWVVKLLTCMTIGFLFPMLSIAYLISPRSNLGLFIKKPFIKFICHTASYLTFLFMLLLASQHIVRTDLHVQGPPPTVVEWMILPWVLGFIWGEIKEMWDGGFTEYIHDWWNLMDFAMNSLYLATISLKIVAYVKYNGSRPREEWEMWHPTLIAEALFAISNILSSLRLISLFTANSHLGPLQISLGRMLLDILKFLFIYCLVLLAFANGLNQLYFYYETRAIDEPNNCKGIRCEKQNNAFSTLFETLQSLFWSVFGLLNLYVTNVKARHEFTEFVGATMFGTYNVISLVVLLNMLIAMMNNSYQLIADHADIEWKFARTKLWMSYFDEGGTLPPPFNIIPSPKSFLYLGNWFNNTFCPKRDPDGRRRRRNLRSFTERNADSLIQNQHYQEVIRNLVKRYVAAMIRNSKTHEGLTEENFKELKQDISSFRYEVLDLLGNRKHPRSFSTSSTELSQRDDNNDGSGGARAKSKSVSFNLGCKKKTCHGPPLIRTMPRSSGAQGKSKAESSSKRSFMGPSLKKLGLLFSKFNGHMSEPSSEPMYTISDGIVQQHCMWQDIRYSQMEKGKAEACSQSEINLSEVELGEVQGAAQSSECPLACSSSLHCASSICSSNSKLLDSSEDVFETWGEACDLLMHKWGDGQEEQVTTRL
As to the kind of experiment: Whole-cell patch clamp, block of LaCl3-activated TRPC5 inward current. The settings on record: TRPC5-expressing HEK293 TREx cells, 80 μM LaCl3, inward current, IC50 estimated from 5 μM and 500 nM, read-out: hTRPC5 Patch La3+ Inwd (nM) (All Batches). The class given is cell-based. As for the experimental part: In certain embodiments, exemplary compounds of Formula I and Formula II include the compounds described in Table 1 and in the Examples. A compound described herein may be tested for its ability to block both inward and outward currents through the TRPC5 channel, e.g., by an assay as described in Example 1. For example, IC50 of a compound of Formula I or Formula II was estimated by testing the compound at 5 μM and 500 nM. […] IC50 for a compound of Formula I or Formula II between 500 nM and 5 μM was similarly estimated. As shown, “A” refers to an IC50<100 nM. “B” refers to an IC50 between 100 nM and 500 nM. “C” refers to an IC50 between 500 nM and 1000 nM. “D” refers to an IC50 between 1 μM and 2 μM. “E” refers to an IC50 between 2 μM and 10 μM. “F” refers to […]. “ND” refers to compounds wherein the IC50 was not determined.
Patch clamp experiments permit the detection of currents through the TRPC5 channel in the cell line described above. In normal whole-cell patch clamp recordings, a glass electrode is brought into contact with a single cell and a high-resistance (gigaohm) seal is established with the cell membrane. The membrane is then ruptured to achieve the whole-cell configuration, permitting control of the voltage of the cell membrane and measurement of currents flowing across the membrane using the amplifier attached to the electrode and resulting in the replacement of cytoplasm with the pipette solution. A perfusion system permits control of the extracellular solution, including the addition of blockers and activators of the current. The current can be activated by including 1.4 μM free Ca^2+ in the pipette (intracellular) solution, and 80 μM LaCl3 in the extracellular solution.
TRPC5 cells were induced 20-48 hours, removed from growth plates, and replated at low density (to attain good single-cell physical separation) on glass coverslips for measurement. In some cases, cells were grown in low density overnight on glass coverslips. Patch clamp recordings were made in the whole-cell mode with a holding potential of −40 mV. Every 5 seconds, a voltage ramp was applied from −120 to +100 mV, 400 ms in duration. Currents elicited were quantified at −80 mV and +80 mV. The internal solution consisted of 140 mM cesium aspartate, 10 mM HEDTA, 2 mM CaCl2, 2.27 mM MgCl2 and 10 mM HEPES, pH 7.2, with 1,400 nM calculated free Ca^2+. The external solution consisted of 150 mM NaCl, 4.5 mM KCl, 1 mM MgCl2, 2 mM CaCl2, 10 mM HEPES, 10 mM glucose, 1 mM EGTA, pH 7.4. Upon addition of LaCl3, TRPC5 current was induced only in TRPC5-expressing cells and not in parental HEK293 TREx cells. Removal of the LaCl3 stimulus causes most of the current to go away. Potential blockers were tested for ability to block both inward and outward currents in the continued presence of LaCl3.
IC50 of a compound of Formula I or Formula II was estimated by testing the compound at 5 μM and 500 nM. […] IC50 for a compound of Formula I or Formula II between 500 nM and 5 μM was similarly estimated.
As for `CCOC(=O)CCC(C)(C)c1nc2c(c(=O)n(C)c(=O)n2C)n1Cc1cccc(Br)c1` [Compound 84], the IC50 is 1000 to 2000 nM. Then `CCOC(=O)CC(C)c1nc2c(c(=O)n(C)c(=O)n2C)n1Cc1cccc(Br)c1` (stereo not shown) [Compound 86], with 100 to 500 nM; and `CCOC(=O)C(C)Cc1nc2c(c(=O)n(C)c(=O)n2C)n1Cc1cccc(Br)c1` (stereo not shown) [Compound 87], with 500 to 1000 nM. As to `CCCOCCc1nc2c(c(=O)n(C)c(=O)n2C)n1Cc1cccc(OC(F)(F)F)c1` [Compound 88], the IC50 is 500 to 1000 nM.

For `CCCOCCc1nc2c(c(=O)n(C)c(=O)n2C)n1Cc1ccc(OC)cc1` [Compound 89], the IC50 is 2000 to 10000 nM. On to `CCCOCCc1nc2c(c(=O)n(C)c(=O)n2C)n1Cc1cccc(C)c1` [Compound 90], for which the IC50 is 1000 to 2000 nM.

Regarding `CCCOCCc1nc2c(c(=O)n(C)c(=O)n2C)n1Cc1cccc(OC)c1` [Compound 91], the IC50 was 2000 to 10000 nM. Next, `CCCOCCc1nc2c(c(=O)n(C)c(=O)n2C)n1Cc1cccc(F)c1` [Compound 92]: 2000 to 10000 nM; `CCCOCCc1nc2c(c(=O)n(C)c(=O)n2C)n1Cc1ccc(Cl)cc1` [Compound 93]: 500 to 1000 nM. In the case of `CCCOCCc1nc2c(c(=O)n(C)c(=O)n2C)n1Cc1ccc(C)cc1` [Compound 94, 1,3-dimethyl-7-(4-methylbenzyl)-8-(2-propoxyethyl)-1H-purine-2,6(3H,7H)-dione], the IC50 is 2000 to 10000 nM.

On to `CCCOCCc1nc2c(c(=O)n(C)c(=O)n2C)n1Cc1ccc(Br)cc1` [Compound 95, 7-(4-bromobenzyl)-1,3-dimethyl-8-(2-propoxyethyl)-1H-purine-2,6(3H,7H)-dione], for which the IC50 is 1000 to 2000 nM.

As to `CCOC(=O)CC(C)(C)c1nc2c(c(=O)n(C)c(=O)n2C)n1Cc1cccc(Br)c1` [Compound 96, Ethyl 3-(7-(3-bromobenzyl)-1,3-dimethyl-2,6-dioxo-2,3,6,7-tetrahydro-1H-purin-8-yl)-3-methylbutanoate], the IC50 was 500 to 1000 nM. As to `CCOC(=O)C(C)(C)Cc1nc2c(c(=O)n(C)c(=O)n2C)n1Cc1cccc(Br)c1` [Compound 97, Ethyl 3-(7-(3-bromobenzyl)-1,3-dimethyl-2,6-dioxo-2,3,6,7-tetrahydro-1H-purin-8-yl)-2-2-dimethylpropanoate], the IC50 is 100 to 500 nM.

As to `CCCCC(O)c1nc2c(c(=O)n(C)c(=O)n2C)n1Cc1cccc(Br)c1` (stereo not shown) [Compound 98], the IC50 is 2000 to 10000 nM. On to `CCCOCCOc1nc2c(c(=O)n(C)c(=O)n2C)n1Cc1cccc(Br)c1` [Compound 99, 7-(3-bromobenzyl)-1,3-dimethyl-8-(2-propoxyethoxy)-1H-purine-2,6(3H,7H)-dione], for which the IC50 is 100 to 500 nM.

For the compound `CCc1coc(C(C)(C)Sc2nc3c(c(=O)n(C)c(=O)n3C)n2Cc2cccc(Br)c2)n1` [Compound 100, 7-(3-bromobenzyl)-8-(2-(4-ethyloxazol-2-yl)propan-2-ylthio)-1,3-dimethyl-1H-purine-2,6(3H,7H)-dione], the IC50 was 100 to 500 nM.

As to `Cn1c(=O)c2c(nc(Cc3cccc(C#N)c3)n2Cc2cccc(Br)c2)n(C)c1=O` [Compound 101], the IC50 is 2000 to 10000 nM. For `CCOC(=O)c1cccc(Cc2nc3c(c(=O)n(C)c(=O)n3C)n2Cc2cccc(Br)c2)c1` [Compound 102, ethyl 3-((7-(3-bromobenzyl)-1,3-dimethyl-2,6-dioxo-2,3,6,7-tetrahydro-1H-purin-8-yl)methyl)benzoate], the IC50 was 1000 to 2000 nM. For `Cc1coc(-c2cccc(Oc3nc4c(c(=O)n(C)c(=O)n4C)n3Cc3cccc(Br)c3)c2)n1` [Compound 103, 7-(3-bromobenzyl)-1,3-dimethyl-8-(3-(4-methyloxazol-2-yl)phenoxy)-1H-purine-2,6(3H,7H)-dione], the IC50 was 2000 to 10000 nM.

`Cc1coc(-c2cccc(Cc3nc4c(c(=O)n(C)c(=O)n4C)n3Cc3cccc(Br)c3)c2)n1` [Compound 104]: the IC50 is 2000 to 10000 nM. Regarding `CCCCC(=O)c1nc2c(c(=O)n(C)c(=O)n2C)n1Cc1cccc(Br)c1` [Compound 105, 7-(3-bromobenzyl)-1,3-dimethyl-8-pentanoyl-1H-purine-2,6(3H,7H)-dione], the IC50 was less than 100 nM. As to `CCc1coc(CSc2nc3c(c(=O)n(C)c(=O)n3C)n2Cc2cccc(OC(F)(F)F)c2)n1` [Compound 106, 8-((4-ethyloxazol-2-yl)methylthio)-1,3-dimethyl-7-(3-(trifluoromethoxy)benzyl)-1H-purine-2,6(3H,7H)-dione], the IC50 is 100 to 500 nM. With `CCCOCCc1nc2c(c(=O)n(C)c(=O)n2C)n1Cc1cccc(Cl)c1` [Compound 107], the IC50 was 500 to 1000 nM. With `CCCOCCc1nc2c(c(=O)n(C)c(=O)n2C)n1Cc1ccc(F)cc1` [Compound 108], the IC50 was 2000 to 10000 nM. Next, `CCCOCCc1nc2c(c(=O)n(C)c(=O)n2C)n1Cc1ccc(OC(F)(F)F)cc1` [Compound 109]: 1000 to 2000 nM; `Cn1c(=O)c2c(nc(Oc3cccc(Cl)c3)n2Cc2cccc(Br)c2)n(C)c1=O` [Compound 110, 7-(3-bromobenzyl)-8-(3-chlorophenoxy)-1,3-dimethyl-1H-purine-2,6(3H,7H)-dione]: 100 to 500 nM. Next, `Cn1c(=O)c2c(nc(Oc3cccc(F)c3)n2Cc2cccc(Br)c2)n(C)c1=O` [Compound 111, 7-(3-bromobenzyl)-8-(3-fluorophenoxy)-1,3-dimethyl-1H-purine-2,6(3H,7H)-dione]: 1000 to 2000 nM. Then `Cn1c(=O)c2c(nc(Oc3cccc(C#N)c3)n2Cc2cccc(Br)c2)n(C)c1=O` [Compound 112, 3-(7-(3-bromobenzyl)-1,3-dimethyl-2,6-dioxo-2,3,6,7-tetrahydro-1H-purin-8-yloxy)benzonitrile], with 2000 to 10000 nM. As for `CCCc1cccc(Oc2nc3c(c(=O)n(C)c(=O)n3C)n2Cc2cccc(Br)c2)c1` [Compound 113, 7-(3-bromobenzyl)-1,3-dimethyl-8-(3-propylphenoxy)-1H-purine-2,6(3H,7H)-dione], the IC50 was less than 100 nM.

`CC(=O)c1cccc(Oc2nc3c(c(=O)n(C)c(=O)n3C)n2Cc2cccc(Br)c2)c1` [Compound 114, 8-(3-acetylphenoxy)-7-(3-bromobenzyl)-1,3-dimethyl-1H-purine-2,6(3H,7H)-dione]: the IC50 is 1000 to 2000 nM. On to `Cn1c(=O)c2c(nc(Oc3cccc(OC(F)(F)F)c3)n2Cc2cccc(Br)c2)n(C)c1=O` [Compound 115, 7-(3-bromobenzyl)-1,3-dimethyl-8-(3-(trifluoromethoxy)phenoxy)-1H-purine-2,6(3H,7H)-dione], for which the IC50 is less than 100 nM.
